In assay [1] the test system is horseradish peroxidase (HRP-Type VIIA). Kind of assay: pH dependence of the enhanced luminol-peroxide-peroxidase chemiluminescent reaction (Example 5). The class given is biochemical. The conditions noted are these: 5.0 mM luminol, 4.00 mM perborate, 1.50 mM enhancer; all pH values. The method, then:
All measurements reported in Example 5 were carried out with a fluorimeter (Varian Eclipse), Bio/Chemiluminescence Mode (wavelength of emission: 425 nm; emission slit: 10 nm; emission filter: open; photomultiplier voltage: medium). A series of substrates in 0.125 M, pH 9.1 Tris Buffer is prepared, with the following composition: • [luminol sodium salt]=5.0 mM. • [sodium perborate]=4.00 mM • 3-(phenothiazin-10-yl)propane-1-sulfonate=1.50 mM
A series of polymethylmethacrylate fluorimetry cuvettes is prepared, each containing of containing 2 mL of substrate. To each cuvette is added a small amount of 5M or 12M HCl, in order to adjust the pH to the following values: 9.02, 8.76, 8.51, 8.41, 8.28, 8.14 and 7.95, and limiting changes in the total volume to less than 5%. Then to each cuvette are added 10 μL of a 0.5 μg/mL solution of horseradish peroxidase (HRP-Type VIIA). After mixing the solution with a vortex for a few seconds, measurement of the luminescent signal is initiated. […] From the results obtained, which are shown in FIG. 3, it is evident that the chemiluminescent signal reaches the maximum value in the range between pH 8.3 and pH 8.6.

The test system is the same in assay [2]. Kind of assay: luminol-peroxide-peroxidase chemiluminescent reaction, dependence on enhancer concentration (Example 3). The class given is biochemical. As to conditions: 2.50 mM luminol, 2.00 mM perborate, pH 8.6. The method, then:
All measurements reported in Example 3 were carried out with a spectrofluorimeter (Varian Eclipse), Bio/Chemiluminescence Mode (wavelength of emission: 425 nm; emission slit: 20 nm). A series of substrates in 0.1 M, pH 8.6 Tris Buffer is prepared, with the following compositions: • [luminol sodium salt]=2.50 mM • [sodium perborate]=2.00 mM • 3-(phenothiazin-10-yl)propane-1-sulfonate=11.5 μM, 23 μM, 47 μM, 94 μM, 188 μM, 375 μM, 1500 μM e 3000 μM.
To a polymethylmethacrylate fluorimetry cuvette of containing 2 mL of each substrate, is added 10 μL of a solution of 0.5 μg/mL of horseradish peroxidase (HRP-Type VIIA). After mixing the solution with a vortex for a few seconds, measurement of the luminescent signal is initiated. […] The dependence of the chemiluminescent signal (plateau value) for each substrate, is reported graphically in FIG. 1. The luminescent signal grows very rapidly with increasing concentration of the enhancer, 3-(phenothiazin-10-yl)propane-1-sulfonate, until it reaches a maximum value between 0.5 and 1 mM. Further raising the concentration of the enhancer, the chemiluminescent signal begins to decline slowly. At the highest concentration of enhancer, 3.0 mM, the signal is approximately 70% of the maximum value.

Assay [3] shares this test system. Kind of assay: enhanced luminol-peroxide-peroxidase chemiluminescent reaction, dependence on luminol concentration (Example 4). In kind it is biochemical. How it is done: All measurements reported in Example 4 were carried out with a spectrofluorimeter (Varian Eclipse), Bio/Chemiluminescence Mode (wavelength of emission: 425 nm; emission slit: 20 nm). A series of substrates in 0.1 M, pH 8.6 Tris Buffer is prepared, with the following compositions: • [luminol sodium salt]=0.625 mM, 1.25 mM, 2.50 mM, 5.0 mM, 10 mM. • [sodium perborate]=2.00 mM • 3-(phenothiazin-10-yl)propane-1-sulfonate=0.75 mM
To a polymethylmethacrylate fluorimetry cuvette of containing 2 mL of each substrate, is added 10 μL of a solution of 0.5 μg/mL of horseradish peroxidase (HRP-Type VIIA). After mixing the solution with a vortex for a few seconds, measurement of the luminescent signal is initiated. […] The dependence of the chemiluminescent signal (plateau value) for each substrate, is reported graphically in FIG. 2. The luminescent signal gradually grows very rapidly with increasing concentration of the luminol, until it reaches a maximum value between 0.5 and 1 mM. Further raising the concentration of the enhancer, the chemiluminescent signal begins to decline slowly. At the highest concentration of enhancer, 3.0 mM, the signal is approximately 70% of the maximum value. The luminescent signal grows gradually, and reaches a plateau at the highest concentration of luminol used in the experiment, 10 mM.

A further assay deals with peroxidase. The conditions noted are these: results obtained by Fujirebio, U.S. Pat. No. 5,171,668; cited from earlier work.
The next assay concerns peroxidase enzyme. The conditions noted are these: phenothiazine present as impurity in the enhancer; according to U.S. Pat. No. 6,432,662; cited from earlier work.

`O=S(=O)([O-])CCCN1c2ccccc2Sc2ccccc21.[Na+]` [sodium 3-(phenothiazin-10-yl)propane-1-sulfonate]: the “time course of the chemiluminescent signal” value in assay [1] was “reaches a constant value within a few seconds”; in assay [2] (all enhancer concentrations), “reaches a plateau within a few minutes, and then remains stable for at least thirty minutes”; in assay [3] (0.75 mM enhancer, 2.00 mM perborate, luminol 0.625-10 mM, pH 8.6), “reaches a plateau within a few minutes, and then remains stable for at least thirty minutes”. Also, the “chemiluminescent signal relative to the maximum value” in assay [2] (highest concentration of enhancer, 3.0 mM) is reported as “approximately 70%”; in assay [3] (as printed in Example 4: highest concentration of enhancer, 3.0 mM) it was “approximately 70%”. Further, the “luminol concentration at which the luminescent signal reaches a plateau” value in assay [3] (0.75 mM enhancer, 2.00 mM perborate, pH 8.6, highest luminol concentration used) was 10 mM. Besides, the “enhancement of luminol chemiluminescence compared with standard enhancer 4-iodophenol” value with peroxidase was “not significantly better than those observed with a standard enhancer such as 4-iodophenol”.

Regarding `c1ccc2c(c1)Nc1ccccc1S2` [phenothiazine], the “effect on the peroxidase enzyme” value in the assay with peroxidase enzyme is given as “deactivates the peroxidase enzyme”.
